Key:
Assay type in all cases: in vivo
[1] = system: Abutilon theophrasti; assay: Pre-emergence herbicidal action against ABUTH; details: visual score after 3 weeks vs untreated controls
In short: (§1)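 Seeds sown in sandy loam, soil-covered; compound sprayed on soil surface pre-emergence. Application: WP/EC, 600–800 l/ha, 0.2% wetting agent. Readout: visual % damage at 3 weeks.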

[2] = system: Pharbitis purpurea; assay: Pre-emergence herbicidal action against PHBPU; details: 320 g/ha; visual score after 3 weeks vs untreated controls
In short: as §1

[3] = system: Lolium rigidum; assay: Pre-emergence herbicidal action against LOLRI
In short: as §1

[4] = system: Avena fatua; assay: Post-emergence herbicidal action against AVEFA; details: visual assessment about 3 weeks after treatment
In short: (§2)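 Sandy loam, greenhouse; treatment 2–3 weeks after sowing, one-leaf stage. Aqueous suspension or emulsion from WP/EC sprayed on foliage (600–800 l/ha, 0.2% wetting agent). Readout: visual % action, ~3 weeks.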

[5] = system: Lolium rigidum; assay: Post-emergence herbicidal action against LOLRI; details: 80 g/ha
Experimental: (§3) Seeds of monocotyledonous and dicotyledonous weed and crop plants are laid out in sandy loam soil in wood-fiber pots, covered with soil and cultivated in a greenhouse under good growth conditions. 2 to 3 weeks after sowing, the test plants are treated at the one-leaf stage. The compounds of the invention, formulated in the form of wettable powders (WP) or as emulsion concentrates (EC), are then sprayed onto the green parts of the plants in the form of an aqueous suspension or emulsion at a water application rate equivalent to 600 to 800 l/ha, with addition of 0.2% wetting agent. After the test plants have been left to stand in the greenhouse under optimal growth conditions for about 3 weeks, the action of the preparations is assessed visually in comparison to untreated controls (herbicidal action in percent (%): 100% activity=the plants have died, 0% activity=like control plants). […] The tables below illustrate, in an illustrative manner, the post-emergence herbicidal action of the compounds of the invention, the herbicidal activity being stated in percent.

[6] = system: Abutilon theophrasti; assay: Post-emergence herbicidal action against ABUTH
In short: as §2

[7] = system: Polygonum convolvulus; assay: Pre-emergence herbicidal action against POLCO
In short: as §1

[8] = system: Setaria viridis; assay: Post-emergence herbicidal action against SETVI; details: 80 g/ha, visual assessment about 3 weeks after treatment
In short: as §2

[9] = system: Polygonum convolvulus; assay: Post-emergence herbicidal action against POLCO; details: visual assessment about 3 weeks after treatment
Experimental: as §3

[10] = system: Stellaria media; assay: Pre-emergence herbicidal action against STEME
In short: as §1

[11] = system: Veronica persica; assay: Pre-emergence herbicidal action against VERPE; details: 320 g/ha
In short: as §1

[12] = system: Alopecurus myosuroides; assay: Pre-emergence herbicidal action against ALOMY; details: 320 g/ha; visual score after 3 weeks vs untreated controls
In short: as §1

[13] = system: Amaranthus retroflexus; assay: Pre-emergence herbicidal action against AMARE; details: visual score after 3 weeks vs untreated controls
In short: as §1

[14] = system: Stellaria media; assay: Post-emergence herbicidal action against STEME; details: visual assessment about 3 weeks after treatment
In short: as §2

[15] = system: Matricaria inodora; assay: Post-emergence herbicidal action against MATIN; details: visual assessment about 3 weeks after treatment
In short: as §2

[16] = system: Matricaria inodora; assay: Pre-emergence herbicidal action against MATIN; details: visual score after 3 weeks vs untreated controls
In short: as §1

[17] = system: Setaria viridis; assay: Pre-emergence herbicidal action against SETVI
In short: as §1

[18] = system: Echinochloa crus-galli; assay: Pre-emergence herbicidal action against ECHCG; details: visual score after 3 weeks vs untreated controls
In short: as §1

[19] = system: Pharbitis purpurea; assay: Post-emergence herbicidal action against PHBPU; details: visual assessment about 3 weeks after treatment
In short: as §2

[20] = system: Hordeum murinum; assay: Pre-emergence herbicidal action against HORMU; details: 320 g/ha; visual score after 3 weeks vs untreated controls
From the text: Seeds of monocotyledonous and dicotyledonous weed plants and crop plants are laid out in sandy loam soil in wood-fiber pots and covered with soil. The compounds of the invention, formulated in the form of wettable powders (WP) or as emulsion concentrates (EC), are then applied to the surface of the covering soil in the form of an aqueous suspension or emulsion at a water application rate equivalent to 600 to 800 l/ha, with addition of 0.2% wetting agent. After the treatment, the pots are placed in a greenhouse and kept under good growth conditions for the trial plants. The damage to the test plants is scored visually after a test period of 3 weeks by comparison with untreated controls (herbicidal activity in percent (%): 100% activity=the plants have died, 0% activity=like control plants). […] The tables below illustrate, in an illustrative manner, the post-emergence herbicidal action of the compounds of the invention, the herbicidal activity being stated in percent.

[21] = system: Viola tricolor; assay: Pre-emergence herbicidal action against VIOTR
In short: as §1

[22] = system: Echinochloa crus-galli; assay: Post-emergence herbicidal action against ECHCG; details: visual assessment about 3 weeks after treatment
In short: as §2

[23] = system: Viola tricolor; assay: Post-emergence herbicidal action against VIOTR
In short: as §2

[24] = system: Avena fatua; assay: Pre-emergence herbicidal action against AVEFA; details: visual score after 3 weeks vs untreated controls
In short: as §1

[25] = system: Amaranthus retroflexus; assay: Post-emergence herbicidal action against AMARE; details: visual assessment about 3 weeks after treatment
In short: as §2

[26] = system: Alopecurus myosuroides; assay: Post-emergence herbicidal action against ALOMY; details: 80 g/ha
In short: as §2

[27] = system: Cyperus esculentus; assay: Pre-emergence herbicidal action against CYPES; details: visual score after 3 weeks vs untreated controls
In short: as §1

[28] = system: Veronica persica; assay: Post-emergence herbicidal action against VERPE; details: 80 g/ha, visual assessment about 3 weeks after treatment
In short: as §2

Structure (SMILES): CCn1nnnc1NC(=O)c1ccc(C(F)(F)F)c(C(=O)n2cccn2)c1Cl [Example 2-153]
- Pre-emergence action against ABUTH ([1]; 20 g/ha): 100%
- Pre-emergence action against ABUTH ([1]; 80 g/ha): 100%
- Pre-emergence action against ABUTH ([1]; Dosage column 320 g/ha (heading prints 3200 g/ha)): 100%
- Pre-emergence action against PHBPU [2]: 100%
- Pre-emergence action against LOLRI ([3]; 80 g/ha): 80%
- Pre-emergence action against LOLRI ([3]; 320 g/ha): 90%
- Post-emergence action against AVEFA in % ([4]; 20 g/ha): 90%
- Post-emergence action against AVEFA in % ([4]; 80 g/ha): 100%
- Post-emergence action against LOLRI in % [5]: 80%
- Post-emergence action against ABUTH ([6]; 5 g/ha): 80%
- Post-emergence action against ABUTH ([6]; 20 g/ha): 90%
- Post-emergence action against ABUTH ([6]; 80 g/ha): 100%
- Pre-emergence action against POLCO ([7]; 80 g/ha): 80%
- Pre-emergence action against POLCO ([7]; 320 g/ha): 100%
- Post-emergence action against SETVI in % [8]: 100%
- Post-emergence action against POLCO in % ([9]; 20 g/ha): 90%
- Post-emergence action against POLCO in % ([9]; 80 g/ha): 100%
- Pre-emergence action against STEME ([10]; 20 g/ha): 90%
- Pre-emergence action against STEME ([10]; 80 g/ha): 100%
- Pre-emergence action against STEME ([10]; 320 g/ha): 100%
- Pre-emergence action against VERPE [11]: 90%
- Pre-emergence action against ALOMY [12]: 90%
- Pre-emergence action against AMARE ([13]; 20 g/ha): 100%
- Pre-emergence action against AMARE ([13]; 80 g/ha): 100%
- Pre-emergence action against AMARE ([13]; 320 g/ha): 100%
- Post-emergence action against STEME in % ([14]; 5 g/ha): 100%
- Post-emergence action against STEME in % ([14]; 20 g/ha): 100%
- Post-emergence action against STEME in % ([14]; 80 g/ha): 100%
- Post-emergence action against MATIN in % ([15]; 5 g/ha): 90%
- Post-emergence action against MATIN in % ([15]; 20 g/ha): 100%
- Post-emergence action against MATIN in % ([15]; 80 g/ha): 100%
- Pre-emergence action against MATIN ([16]; 20 g/ha): 100%
- Pre-emergence action against MATIN ([16]; 80 g/ha): 100%
- Pre-emergence action against MATIN ([16]; 320 g/ha): 100%
- Pre-emergence action against SETVI ([17]; 20 g/ha): 90%
- Pre-emergence action against SETVI ([17]; 80 g/ha): 100%
- Pre-emergence action against SETVI ([17]; 320 g/ha): 100%
- Pre-emergence action against ECHCG ([18]; 80 g/ha): 100%
- Pre-emergence action against ECHCG ([18]; 320 g/ha): 100%
- Post-emergence action against PHBPU in % ([19]; 20 g/ha): 80%
- Post-emergence action against PHBPU in % ([19]; 80 g/ha): 90%
- Pre-emergence action against HORMU [20]: 90%
- Pre-emergence action against VIOTR ([21]; 80 g/ha): 100%
- Pre-emergence action against VIOTR ([21]; 320 g/ha): 100%
- Post-emergence action against ECHCG in % ([22]; 5 g/ha): 80%
- Post-emergence action against ECHCG in % ([22]; 20 g/ha): 80%
- Post-emergence action against ECHCG in % ([22]; 80 g/ha): 90%
- Post-emergence action against VIOTR in % ([23]; 5 g/ha): 90%
- Post-emergence action against VIOTR in % ([23]; 20 g/ha): 90%
- Post-emergence action against VIOTR in % ([23]; 80 g/ha): 100%
- Pre-emergence action against AVEFA ([24]; 80 g/ha): 100%
- Pre-emergence action against AVEFA ([24]; 320 g/ha): 100%
- Post-emergence action against AMARE in % ([25]; 5 g/ha): 100%
- Post-emergence action against AMARE in % ([25]; 20 g/ha): 100%
- Post-emergence action against AMARE in % ([25]; 80 g/ha): 100%
- Post-emergence action against ALOMY [26]: 90%
- Pre-emergence action against CYPES ([27]; 80 g/ha): 100%
- Pre-emergence action against CYPES ([27]; 320 g/ha): 100%
- Post-emergence action against VERPE in % [28]: 80%

Reference: US12599136B2, “Substituted isophthalic acid diamides and their use as herbicides” (Bayer Aktiengesellschaft, priority 2020, dated 2026)
